Biological target: HIF-2α (Homo sapiens, UniProt Q99814)
Assay: Immunoblot of HIF-2α accumulation in D120 hiPSC-derived retinal organoids in 1% O2
Format: cell-based
Set-up: endogenous in cells
Details: 1% O2 12 hours, 32-134D
Procedure: An hiPSC line derived from CD34^+ cord blood was used in this study (A18945, Thermo Fisher Scientific) ([70]). Undifferentiated hiPSCs and derived retinal organoids were routinely tested for mycoplasma contamination by PCR. Cell culture, retinal differentiation, and organoid formation were conducted as previously described ([71]). Retinal organoids at D120 were used for experiments.
Immunoblot assays. Cells, neurosensory retina, and D120 retinal organoid lysates were subjected
to 4–15% gradient SDS/PAGE (Invitrogen). Immunoblot (Western blot or WB) assays were
performed as previously described (1). […]

Chain of HIF-2α (Q99814 whole entry): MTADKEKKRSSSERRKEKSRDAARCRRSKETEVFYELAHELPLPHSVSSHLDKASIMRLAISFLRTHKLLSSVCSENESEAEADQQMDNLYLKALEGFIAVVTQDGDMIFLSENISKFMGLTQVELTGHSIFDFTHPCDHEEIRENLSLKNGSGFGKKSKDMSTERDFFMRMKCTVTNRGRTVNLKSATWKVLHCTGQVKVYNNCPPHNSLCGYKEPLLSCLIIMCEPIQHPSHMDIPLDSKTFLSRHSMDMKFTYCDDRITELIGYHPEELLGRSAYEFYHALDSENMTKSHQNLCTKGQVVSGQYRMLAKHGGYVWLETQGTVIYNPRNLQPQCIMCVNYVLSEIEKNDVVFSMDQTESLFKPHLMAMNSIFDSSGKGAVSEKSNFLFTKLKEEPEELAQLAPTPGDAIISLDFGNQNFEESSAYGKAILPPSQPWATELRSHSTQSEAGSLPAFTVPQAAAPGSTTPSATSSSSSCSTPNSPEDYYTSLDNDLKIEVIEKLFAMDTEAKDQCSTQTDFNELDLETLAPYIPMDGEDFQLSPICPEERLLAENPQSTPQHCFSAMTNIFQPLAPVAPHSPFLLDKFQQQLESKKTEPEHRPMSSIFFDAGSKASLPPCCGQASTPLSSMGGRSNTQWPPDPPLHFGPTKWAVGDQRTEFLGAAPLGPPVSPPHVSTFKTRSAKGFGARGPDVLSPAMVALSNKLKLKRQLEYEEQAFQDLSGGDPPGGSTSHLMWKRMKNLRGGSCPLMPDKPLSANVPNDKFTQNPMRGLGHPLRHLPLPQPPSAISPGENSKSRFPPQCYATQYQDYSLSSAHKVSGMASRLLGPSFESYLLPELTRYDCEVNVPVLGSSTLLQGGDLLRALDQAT

`Brc1ccc2c(-c3csc(-c4c[nH]c5c(Br)cccc45)n3)c[nH]c2c1` [32-134D, 4-(6-bromo-1H-indol-3-yl)-2-(7-bromo-1H-indol-3-yl)thiazole] was tested, and the “accumulation of HIF-2α protein” value was “effectively prevented accumulation”.

Reference: publication PMC10313368 (The Journal of Clinical Investigation, 2023)
